Experimental data published in PubChem BioAssay AID212 (DTP/NCI, 2004).
Where “and” joins values, the source holds several entries; their conditions need not be identical. Equal values may be shown once. Inconclusive results are not listed.

Tested on: BDF1 mice, colon carcinoma 38 sc, T/C %
Assay: NCI In Vivo Anticancer Drug Screen. Data for tumor model Colon Carcinoma 38 (subcutaneous) in B6D2F1 (BDF1) mice
Details: endpoint: median tumor weight (est.), higher = larger tumour
Experimental: The antitumor activity of compounds was measured in mice bearing transplantable tumors. Survival or tumor size were measured and the results are expressed as the measurement made in the treated group (T) divided by the measurement made in the vehicle treated control group (C). The tumor model used in this assay is Colon Carcinoma 38 (subcutaneous) in B6D2F1 (BDF1) mice

[1] = dose: 25.0 mg/kg/injection, schedule: Q07DX002 (ip), vehicle: saline with Tween-80
[2] = dose: 50.0 mg/kg/injection, schedule: Q07DX002 (ip), vehicle: saline with Tween-80
[3] = dose: 100.0 mg/kg/injection, schedule: Q07DX002 (ip), vehicle: saline with Tween-80
[4] = dose: 200.0 mg/kg/injection, schedule: Q07DX002 (ip), vehicle: saline with Tween-80
[5] = dose: 6.25 mg/kg/injection, schedule: Q07DX002 (ip), vehicle: saline with Tween-80

COC(=O)[C@@H]1c2cc3c(c(O)c2[C@@H](OC)C[C@@]1(C)O)C(=O)c1c(O)cc2c(c1C3=O)OC1O[C@@]2(C)[C@H](O)[C@@H](N(C)C)[C@@H]1O was tested, and the T/C (dose: 6.25 mg/kg/injection, schedule: Q07DX002 (ip), vehicle: saline) was 101 % of control, the T/C (dose: 12.5 mg/kg/injection, schedule: Q07DX002 (ip), vehicle: saline) was 115 % of control and 121 % of control and the T/C (dose: 12.5 mg/kg/injection, schedule: Q07DX003 (ip), vehicle: suspension in saline) was 124 % of control. The T/C (dose: 25.0 mg/kg/injection, schedule: Q07DX002 (ip), vehicle: saline) was 102 % of control, the T/C (dose: 50.0 mg/kg/injection, schedule: Q07DX003 (ip), vehicle: suspension in saline) was 114 % of control and the T/C (dose: 100.0 mg/kg/injection, schedule: Q07DX003 (ip), vehicle: suspension in saline) was 106 % of control. The T/C (dose: 200.0 mg/kg/injection, schedule: Q07DX003 (ip), vehicle: suspension in saline) was 104 % of control and the T/C (dose: 400.0 mg/kg/injection, schedule: Q07DX003 (ip), vehicle: suspension in saline) was 85 % of control.

For CN(C)N=Nc1cn[nH]c1C(N)=O, the T/C (dose: 6.25 mg/kg/injection, schedule: Q07DX002 (ip), vehicle: Klucel (hydroxypropylcellulose) (HPC)) was 102 % of control.

With CN(C)c1ccc2c(N(C)C)cc(N(C)C)nc2c1 the T/C (dose: 3.12 mg/kg/injection, schedule: Q07DX002 (ip), vehicle: Klucel (hydroxypropylcellulose) (HPC)) was 77 % of control and 101 % of control, the T/C (dose: 12.5 mg/kg/injection, schedule: Q07DX002 (ip), vehicle: Klucel (hydroxypropylcellulose) (HPC)) was 114 % of control and 107 % of control and the T/C (dose: 25.0 mg/kg/injection, schedule: Q07DX002 (ip), vehicle: Klucel (hydroxypropylcellulose) (HPC)) was 72 % of control.

In the case of COC1=C2C[C@@H](C)C[C@@H](OC)[C@@H](O)[C@H](C)/C=C(\C)[C@@H](OC(N)=O)[C@H](OC)/C=C\C=C(/C)C(=O)NC(=CC1=O)C2=O, the T/C (dose: 0.25 mg/kg/injection, schedule: Q07DX002 (ip), vehicle: saline with Tween-80) is reported as 92 % of control and 100 % of control, the T/C (dose: 0.5 mg/kg/injection, schedule: Q07DX002 (ip), vehicle: saline with Tween-80) is reported as 86 % of control and the T/C (dose: 1.0 mg/kg/injection, schedule: Q07DX002 (ip), vehicle: saline with Tween-80) is reported as 108 % of control. The T/C (dose: 2.0 mg/kg/injection, schedule: Q07DX002 (ip), vehicle: saline with Tween-80) was 94 % of control, the T/C (dose: 4.0 mg/kg/injection, schedule: Q07DX002 (ip), vehicle: saline with Tween-80) was 98 % of control and the T/C (dose: 8.0 mg/kg/injection, schedule: Q07DX002 (ip), vehicle: saline with Tween-80) was 92 % of control and 94 % of control.

CC(C#N)(C#N)N=Nc1ccc(Cl)cc1Cl was tested, and the T/C [1] was 86 % of control and 101 % of control, the T/C [2] was 50 % of control and 69 % of control and the T/C [3] was 66 % of control and 73 % of control. The T/C [4] was 58 % of control and 64 % of control and the T/C (dose: 800.0 mg/kg/injection, schedule: Q07DX002 (ip), vehicle: saline with Tween-80) was 63 % of control and 78 % of control.

With O=NN(CCCl)C(=O)NCCO the T/C (dose: 3.12 mg/kg/injection, schedule: Q07DX002 (ip), vehicle: water) was 75 % of control, the T/C (dose: 12.5 mg/kg/injection, schedule: Q07DX002 (ip), vehicle: water) was 18 % of control and 34 % of control and the T/C (dose: 25.0 mg/kg/injection, schedule: Q07DX002 (ip), vehicle: water) was 14 % of control.

In the case of CCOC1=Cc2c(oc3c(C(C)(C)C)cc(OCC)cc23)OC(C(C)(C)C)=C1, the T/C (dose: 0.78 mg/kg/injection, schedule: Q07DX002 (ip), vehicle: saline with Tween-80) is reported as 94 % of control, the T/C (dose: 1.56 mg/kg/injection, schedule: Q07DX002 (ip), vehicle: saline with Tween-80) is reported as 102 % of control and the T/C [5] is reported as 83 % of control (2×) and 88 % of control. For the same molecule, the T/C (dose: 12.5 mg/kg/injection, schedule: Q07DX002 (ip), vehicle: saline with Tween-80) was 64 % of control and 65 % of control, the T/C [1] was 55 % of control and 64 % of control and the T/C [2] was 51 % of control and 65 % of control. The T/C [3] was 72 % of control and 77 % of control.

In the case of NCCCC(N)(C(=O)O)C(F)F (configuration not stated), the T/C (dose: 100.0 mg/kg/injection, schedule: Q07DX002 (ip), vehicle: distilled water + alcohol) is reported as 124 % of control, the T/C (dose: 200.0 mg/kg/injection, schedule: Q07DX002 (ip), vehicle: distilled water + alcohol) is reported as 107 % of control and the T/C (dose: 400.0 mg/kg/injection, schedule: Q07DX002 (ip), vehicle: distilled water + alcohol) is reported as 113 % of control and 124 % of control. For the same molecule, the T/C (dose: 800.0 mg/kg/injection, schedule: Q07DX002 (ip), vehicle: distilled water + alcohol) was 124 % of control and the T/C (dose: 1600.0 mg/kg/injection, schedule: Q07DX002 (ip), vehicle: distilled water + alcohol) was 123 % of control and 100 % of control.

For CO[C@@H]1[C@H](O)CC[C@]2(CO2)[C@H]1[C@@]1(C)O[C@@H]1CC=C(C)C, the T/C (dose: 3.12 mg/kg/injection, schedule: Q07DX002 (ip), vehicle: saline with Tween-80) was 46 % of control and 55 % of control, the T/C [5] was 50 % of control and 61 % of control and the T/C [2] was 63 % of control and 68 % of control and 71 % of control. The T/C [4] was 92 % of control.
